Reference: article PMC5909127, “Optimization of a “bump-and-hole” approach to allele-selective BET bromodomain inhibition” (Chemical Science, 2018)

Assays:
[1] = target: T1, BRD4 BD1 WT (Homo sapiens, UniProt O60885); assay: ITC; assay type: binding
[2] = target: T2, BRD4 BD1 L/V (Homo sapiens, UniProt O60885, L94V); assay: ITC; assay type: binding; settings: total compound concentration
[3] = target: T1, BRD4 BD1 WT; assay: competitive AlphaLISA; assay type: binding; settings: pIC50 BRD4 BD1 WT, separated enantiomers test; total compound concentration
[4] = system: GFP-BRD4 L/V constructs with NF-κB-RE/luc2P reporter in HEK293T cells; assay: NF-κB luciferase assay; assay type: cell-based, human; settings: 1 µM, inhibiting either individual BD of BRD4
Description: To provide additional functional insights into the individual roles of BD1 vs. BD2 beyond chromatin binding, a luciferase assay was developed to monitor the expression of NF-κB target genes, inspired by work of Zou et al.[45] […] This luciferase induction was maintained with L/V mutations (but not L/A), consistent again with more WT-like functionality of L/V compared to L/A (Fig. 9A).
12 – NF-κB Luciferase Assay
Luciferase experiments were performed in human HEK293T cells seeded in a 24-well plate at 100 000 cells in […]
pBABE NF-κB-RE/luc2P reporter plasmid. Cells were transfected using Lipofectamine™ LTX (Invitrogen) with PLUS™ reagent, with each well receiving 0.5 µg of each plasmid, 2.5 µl LTX and 0.5 µl PLUS reagent. The next day cells were treated with compounds, giving a final concentration of 1 µM compound and 0.01% DMSO. 6 hours later cells were washed with PBS, lysed with passive lysis buffer (Promega) and stored at -20°C.
Luciferase activity was measured suing the Promega luciferase assay. In a black 384-well plate 3µl of clarified lysate was mixed with 15µl luciferase assay reagent and after 15 minutes luminescence was measured in a Pherastar FS. […]
NMR spectra were recorded on a Bruker 500 Ultrashield or a Bruker Ascend 400. […] High Resolution Mass Spectra (HRMS) were recorded on a Bruker micrOTOF. […]

[5] = target: T2, BRD4 BD1 L/V; assay: competitive AlphaLISA; assay type: binding; settings: total compound concentration
[6] = target: T3, BRD2 BD1 L/V (Homo sapiens, UniProt P25440, L110V); assay: ITC; assay type: binding; settings: ITC
[7] = target: T4, BRD3 BD1 WT (Homo sapiens, UniProt Q15059); assay: ITC; assay type: binding
[8] = target: T5, BRD2 BD2 WT (Homo sapiens, UniProt P25440); assay: ITC; assay type: binding
[9] = target: T6, BRD3 BD1 L/V (Homo sapiens, UniProt Q15059, L70V); assay: competitive AlphaLISA; assay type: binding; settings: read-out: AlphaLISA pIC50 Value BRD3 BD1 L/V (converted)
[10] = target: T4, BRD3 BD1 WT; assay: competitive AlphaLISA; assay type: binding; settings: read-out: AlphaLISA pIC50 Value BRD3 BD1 WT (converted)
[11] = target: T3, BRD2 BD1 L/V; assay: competitive AlphaLISA; assay type: binding; settings: read-out: AlphaLISA pIC50 Value BRD2 BD1 L/V (converted)
[12] = target: T7, BRD3 BD2 L/V (Homo sapiens, UniProt Q15059, L345V); assay: ITC; assay type: binding; settings: ITC
[13] = in vitro; settings: PAMPA, pH 7.4
[14] = target: T6, BRD3 BD1 L/V; assay: ITC; assay type: binding; settings: ITC
[15] = target: BRDT BD2 WT (Homo sapiens, UniProt Q58F21); assay: competitive AlphaLISA; assay type: binding; settings: read-out: AlphaLISA pIC50 Value BRDT BD2 WT (converted)
[16] = target: BRD2 BD1 WT (Homo sapiens, UniProt P25440); assay: ITC; assay type: binding
[17] = system: L/V BET bromodomains (BD1 and BD2 of BRD2, BRD3 and BRD4); assay: competitive AlphaLISA (Bio-JQ1 displacement); assay type: binding, human; settings: L/V minus WT
[18] = system: L/V somatic BET bromodomains; assay: ITC; settings: L/V minus WT
[19] = target: T8, BRD3 BD2 WT (Homo sapiens, UniProt Q15059); assay: competitive AlphaLISA; assay type: binding; settings: read-out: AlphaLISA pIC50 Value BRD3 BD2 WT (converted)
[20] = target: BRDT BD2 L/V (Homo sapiens, UniProt Q58F21, L306V); assay: competitive AlphaLISA; assay type: binding; settings: read-out: AlphaLISA pIC50 Value BRDT BD2 L/V (converted)
[21] = target: WT somatic BET bromodomains; assay: ITC; settings: mean and SD of all somatic bromodomains
[22] = target: T5, BRD2 BD2 WT; assay: competitive AlphaLISA; assay type: binding; settings: read-out: AlphaLISA pIC50 Value BRD2 BD2 WT (converted)
[23] = in vitro; settings: BALB/c, mouse, plasma, pH 7.4
[24] = target: BRD2 BD2 L/V (Homo sapiens, UniProt P25440, L383V); assay: ITC; assay type: binding; settings: ITC
[25] = target: T7, BRD3 BD2 L/V; assay: competitive AlphaLISA; assay type: binding; settings: read-out: AlphaLISA pIC50 Value BRD3 BD2 L/V (converted)
[26] = target: WT BET bromodomains (BD1 and BD2 of BRD2, BRD3 and BRD4); assay: competitive AlphaLISA (Bio-JQ1 displacement); assay type: binding, human; settings: mean and SD of all somatic bromodomains; active enantiomer concentration
[27] = target: T8, BRD3 BD2 WT; assay: ITC; assay type: binding

T8 sequence (Q15059 306-416): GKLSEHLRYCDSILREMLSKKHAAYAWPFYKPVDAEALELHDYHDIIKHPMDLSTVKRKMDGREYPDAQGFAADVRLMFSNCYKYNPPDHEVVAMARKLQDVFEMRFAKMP
T6 sequence (Q15059 24-144 L70V limits assumed): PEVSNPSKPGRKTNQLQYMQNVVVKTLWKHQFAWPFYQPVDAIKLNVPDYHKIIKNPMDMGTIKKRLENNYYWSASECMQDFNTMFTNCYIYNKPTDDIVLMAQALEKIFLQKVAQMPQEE
T7 sequence (Q15059 306-416 L345V limits assumed): as the sequence (Q15059 306-416) above, with L40V counted along it
T3 sequence (P25440 71-176 L110V limits assumed): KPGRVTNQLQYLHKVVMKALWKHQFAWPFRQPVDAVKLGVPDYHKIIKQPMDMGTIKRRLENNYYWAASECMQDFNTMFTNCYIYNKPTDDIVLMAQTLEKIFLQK
Sequence of BRD2 BD1 WT (P25440 71-176): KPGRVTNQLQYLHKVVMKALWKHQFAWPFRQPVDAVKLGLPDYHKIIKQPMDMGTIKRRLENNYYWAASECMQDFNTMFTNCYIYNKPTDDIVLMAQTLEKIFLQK
T5 sequence (P25440 344-455): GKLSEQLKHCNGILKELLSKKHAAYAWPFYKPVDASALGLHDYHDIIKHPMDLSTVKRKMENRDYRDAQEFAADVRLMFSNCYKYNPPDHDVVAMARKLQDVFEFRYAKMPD
T4 sequence (Q15059 24-144): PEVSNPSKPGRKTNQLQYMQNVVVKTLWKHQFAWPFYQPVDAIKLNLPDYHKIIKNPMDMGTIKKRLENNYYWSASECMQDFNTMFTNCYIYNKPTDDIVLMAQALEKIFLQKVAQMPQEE
Sequence of BRD2 BD2 L/V (P25440 344-455 L383V): as the sequence (P25440 344-455) above, with L40V counted along it

With `CC[C@@H](C(=O)OC)[C@@H]1N=C(c2ccc(Cl)cc2)c2ccc(OC)cc2-n2c(C)nnc21` (relative stereo) [(2R,3S)-8] the Kd [1] was over 60000 nM, the “N BRD4 BD1 L/V” value ([2]; ITC stoichiometry) was 0.85 ±0.01 and the “ΔH BRD4 BD1 L/V” value ([2]; ITC) was -6.5 ± 0.1 kcal/mol. For the same compound, the Kd ([2]; Kd BRD4 BD1 L/V, ITC of separated enantiomers and racemates) was 440 ± 50 nM, the IC50 [3] was 79400 nM and the “effect on NF-κB signalling” value [4] was “strongly impacted on NF-κB signalling”. The “ΔpIC50 BRD4 BD1” value ([5]; L/V minus WT) was 1.8 and the IC50 ([5]; pIC50 BRD4 BD1 L/V, separated enantiomers test) was 1260 nM.
For `CCNC(=O)[C@H](C)[C@@H]1N=C(c2ccc(Cl)cc2)c2cc(OC)ccc2-n2c(C)nnc21` (relative stereo) [Compound 16], the “ΔH BRD2 BD1 L/V” value [6] was -16.3 kcal/mol, the Kd ([6]; 30°C, read-out: Kd BRD2 BD1 L/V) was 120 nM and the “ΔH BRD3 BD1 WT” value ([7]; ITC) was -8.8 kcal/mol. The “N BRD3 BD1 WT” value ([7]; ITC stoichiometry) was 0.81, the Kd ([7]; ITC, 30°C, read-out: Kd BRD3 BD1 WT) was 1600 nM and the “ΔH BRD2 BD2 WT” value ([8]; ITC) was -3.9 kcal/mol. For the same compound, the “N BRD2 BD2 WT” value ([8]; ITC stoichiometry) was 0.65, the Kd ([8]; ITC, 30°C, read-out: Kd BRD2 BD2 WT) was 2400 nM and the IC50 [9] was 100 nM. The IC50 [10] was 2000 nM, the IC50 [11] was 398 nM and the “ΔH BRD3 BD2 L/V” value [12] was -12.9 kcal/mol. The Kd ([12]; 30°C, read-out: Kd BRD3 BD2 L/V) was 130 nM, the Papp [13] was 2.6 ×10⁻⁶ cm/s and the “ΔH BRD3 BD1 L/V” value [14] was -19.0 kcal/mol. The Kd ([14]; 30°C, read-out: Kd BRD3 BD1 L/V) was 60 nM, the IC50 [15] was 7940 nM and the “ΔH BRD2 BD1 WT” value ([16]; ITC) was -4.5 kcal/mol. The “N BRD2 BD1 WT” value ([16]; ITC stoichiometry) was 0.94, the Kd ([16]; ITC, 30°C, read-out: Kd BRD2 BD1 WT) was 2200 nM and the “AlphaLISA pIC50 ± SD Δ” value [17] was 1.4 ± 0.2. For the same compound, the “ITC pKd ± SD Δ” value [18] was 1.3 ± 0.3, the IC50 [19] was 3980 nM and the IC50 [20] was 398 nM. The “ITC pKd ± SD WT” value [21] was 5.6 ± 0.3, the IC50 [22] was 5010 nM and the half-life at 50 µM [23] was over 3 h. For the same compound, the “ΔH BRD2 BD2 L/V” value [24] was -9.9 kcal/mol, the Kd ([24]; 30°C, read-out: Kd BRD2 BD2 L/V) was 190 nM and the IC50 [25] was 79.4 nM. For the same compound, the “AlphaLISA pIC50 ± SD WT” value [26] was 5.3 ± 0.2, the “ΔH BRD3 BD2 WT” value ([27]; ITC) was -6.0 kcal/mol and the “N BRD3 BD2 WT” value ([27]; ITC stoichiometry) was 0.88. It also gave a Kd ([27]; ITC, 30°C, read-out: Kd BRD3 BD2 WT) of 1500 nM.
